Where “and” joins values, the source holds several entries; their conditions need not be identical. Equal values may be shown once.
Tests used:
[1] = system: patients with type I diabetes and severe non-proliferative DR or non-"high risk" proliferative DR; assay: Phase I human study: octreotide plus conventional diabetes management versus conventional management alone, 15 months; type: in vivo
Excerpt: A total of 39 patients with type I or type II diabetes and diagnosed with either severe non-proliferative DR or non-“high risk” proliferative DR were enrolled between 1991 and 1996 into Phase I or Phase II of the study. Subjects were recruited from patients treated for diabetes mellitus at the University of Florida Adult Endocrinology clinics and referrals from community retinal specialists. All patients provided written informed consent to participate in required study procedures. Volunteers in both phases of the study were randomized to receive conventional diabetes management alone (control group) or octreotide treatment with conventional diabetes care (OCT group). Octreotide was administered via subcutaneous injection 4 times daily or via continuous subcutaneous infusion with doses individually adjusted to the highest tolerated somatostatin analogue levels. The intent was to increase the dose of octreotide until serum IGF-1 was decreased to the hypopituitary range of 75 ng/mL or drug related adverse effects limited octreotide dosing. […] It was expected that approximately 35 to 50% of the control group would progress to photocoagulation within the 15-month period (The Diabetic Retinopathy Study Research Group: Indications for photocoagulation treatment of diabetic retinopathy: Diabetic Reinopathy Study Report No. 14. Int. Opthalmol. Clin. 27:239 (1987)).
Subjects were evaluated at monthly intervals for ocular changes using procedures established in the Early Treatment Diabetic Retinopathy Study (ETDRS) trial (Techniques for scatter and local photocoagulation treatment of diabetic retinopathy. Early Treatment Diabetic Retinopathy Study Report No. 3. The Early Treatment Diabetic Retinopathy Study Research Group. Int Ophthalmol Clin. 27:254-64 (1987)). Ocular examination included fluorescein angiograms and stereoscopic fundis photographs using seven standard photographic fields. Each field was 30 degrees with the first 2 fields centered on the disc and macula. The other fields imaged the surrounding retina. Photographs were assessed for severity of retinopathy using an extension of the modified Airlie House classification scheme. Severe non-proliferative DR required the presence of at least 3 of the following characteristics: cotton wool patches, venous beading, intraretinal microvascular abnormalities (IRMA) or extensive retinal hemorrhages. Inclusion criteria also required understanding the study protocol and willingness to participate in required study procedures. Exclusion criteria included: current use of tobacco products, regular medication other than prescribed antidiabetic agents and thyroxine, history of psychiatric illness, illicit drug use, sitting diastolic blood pressure values greater than […], serum creatinine clearance below 30 ml/min, and a body mass index that differed more than 20% from normal published ranges for the subject's height and sex.
Sixteen subjects with Type I diabetes participated in and completed the Phase-I protocol, with 8 patients randomly assigned to conventional diabetes management and 8 patients assigned treatment with maximally tolerated doses of octreotide in conjunction with routine diabetes management.
Initial octreotide doses of 500 μg/day were escalated based on IGF-1 levels to a maximum of 3000 μg/day during the 15-month treatment period. The range of maximally tolerated octreotide doses used throughout the 15-month treatment period was 600 to 3000 μg/day. The Phase protocol included a 5-day evaluation period with patients confined to the clinical research unit at study initiation. Octreotide treated patients were monitored for response to the initial 500 μg/day dose of octreotide (administered as a constant subcutaneous infusion). GH secretion was quantified from area under the serum concentration versus time curve (AUC) for blood samples collected every 2 to 4 hours throughout a 24-hour period. […]

[2] = system: human retinal endothelial cells; conditions: rapidly proliferating cells, in vitro; cited from earlier work
patients with early DR = conditions: cited from earlier work
[3] = system: patients with Type I or Type II diabetes and severe non-proliferative DR or non-"high risk" proliferative DR; assay: Phase II human study: octreotide plus thyroid hormone (levothyroxine) versus conventional diabetes management, 15 months; type: in vivo; conditions: thyroxine alone 100 to 200 μg/day for hypothyroidism, no octreotide
Excerpt: A total of 39 patients with type I or type II diabetes and diagnosed with either severe non-proliferative DR or non-“high risk” proliferative DR were enrolled between 1991 and 1996 into Phase I or Phase II of the study. Subjects were recruited from patients treated for diabetes mellitus at the University of Florida Adult Endocrinology clinics and referrals from community retinal specialists. All patients provided written informed consent to participate in required study procedures. Volunteers in both phases of the study were randomized to receive conventional diabetes management alone (control group) or octreotide treatment with conventional diabetes care (OCT group). Octreotide was administered via subcutaneous injection 4 times daily or via continuous subcutaneous infusion with doses individually adjusted to the highest tolerated somatostatin analogue levels. […]
Subjects were evaluated at monthly intervals for ocular changes using procedures established in the Early Treatment Diabetic Retinopathy Study (ETDRS) trial (Techniques for scatter and local photocoagulation treatment of diabetic retinopathy. Early Treatment Diabetic Retinopathy Study Report No. 3. The Early Treatment Diabetic Retinopathy Study Research Group. Int Ophthalmol Clin. 27:254-64 (1987)). […] Photographs were assessed for severity of retinopathy using an extension of the modified Airlie House classification scheme. […]

[4] = octreotide treated group, p<0.05 vs conventionally treated group

SMILES	patients requiring PRP during the 15-month study ([1]; 8 patients per group, control also 4 of 8)	mean time for disease progression to laser surgery (PRP) ([1]; control 6.0 months, not different) [months]	mean HbA1c after at least 3 months of study ([1]; conventional management 8.1%±1.8%, p<0.05)	mean decrease in 24 hour AUC for GH (GH secretion) ([1]; initial 500 μg/day constant subcutaneous infusion, day 5 of treatment, compared to control, p<0.05) [%]	patients with IGF-1 decreased into the hypophysectomized range of 75 ng/ml ([1]; maximally tolerated doses 600 to 3000 μg/day)	effect on progression of DR ([1]; maximally tolerated octreotide in the absence of thyroid hormone replacement)	mean IGF-1 at the end of treatment ([1]; octreotide 600 to 3000 μg/day, 15 months, decreased from 241±58 ng/ml at study enrollment, p<0.05 vs control) [ng/mL]	decrease in insulin requirements [1, 4] [%]	improvement in proteinuria [1, 4] [%]	effect on IGF-I and b-FGF stimulated growth of cells [2]	retinal disease versus conventionally managed patients (patients with early DR; early DR, one year, 400 μg/day)	thyroid adverse finding (patients with early DR; infused for one year with 400 μg/day, no evidence for clinical significance)	control patients receiving thyroxine who required PRP [3]
C[C@@H](O)[C@@H]1NC(=O)[C@H](CCCCN)NC(=O)[C@@H](Cc2c[nH]c3ccccc23)NC(=O)[C@H](Cc2ccccc2)NC(=O)[C@@H](NC(=O)[C@H](N)Cc2ccccc2)CSSC[C@@H](C(=O)N[C@H](CO)[C@@H](C)O)NC1=O [octreotide]	Four and 4 of 8	8.5	6.4%±0.9	33	1 of 8	not effective in retarding progression of DR	130 ± 38	29	82	direct inhibitory effects	no difference	mild hypothyroidism	–
N[C@@H](Cc1cc(I)c(Oc2cc(I)c(O)c(I)c2)c(I)c1)C(=O)O [thyroxine, levothyroxine]	–	–	–	–	–	–	–	–	–	–	–	–	3 of the 7
